Values joined by “and” are separate entries in the source; they are usually repeats but may differ in a detail not shown here. Equal values may be shown once.
Key:
[1] = tested on: GIST-T1 cell line xenografts; assay: GIST-T1 cell line xenograft, tumor volume; assay type: in vivo, mice; settings: for tumor volume relative to baseline: WM-1119 50 mg/kg gavage 3 times daily, one value per animal 1-6
Source text: Xenograft Models. The PG27 patient derived xenograft was obtained from a patient undergoing clinically indicated surgery and following written informed consent to a Dana-Farber Cancer Institute IRB-approved research protocol. Cryopreserved tumor or the GIST-T1 cell line mixed 1:1 with matrigel were implanted subcutaneously into 6-week-old female nude mice (NU/NU; Charles River Laboratories). GIST-T1 tested negative for mycoplasma and rodent pathogens (Charles River Laboratories). For in vivo assessment of CRISPR/Cas9)-modified cell line growth. GIST-T1/Cas9 cells were treated with the indicated sgRNAs and selected with puromycin in vitro for 14 days prior to bilateral flank implantation. For drug treatment studies, singly engrafted mice were enrolled into treatment groups when tumors reached approximately 100-200 mm^3 in size, as measured by calipers and determined by the tumor volume equation: […]. […] WM-1119 (50 mg/kg gavage 3 times daily. 7 days per week). VTP-50469 (0.1% in chow) or combination treatments. […] Tumors were dissected and fixed in 10% formalin for corollary studies including H&E staining and immunohistochemistry of sectioned tumors. 4 μm sections were cut from fixed and embedded tumors and stained with Ki-67 (1:400, Cell Signaling Technology Cat #9027) and cleaved caspase-3 (1:250, Cell Signaling Technology Cat #9579). Reactions were developed using DAB (Cell Signaling Technology Cat #8059) or NovaRed (Vector Laboratories Cat #SK-4800) substrate kits per manufacturer recommendations. All procedures were conducted under protocols approved by the Institutional Animal Care and Use Committee at Dana-Farber Cancer Institute.

GIST-T1 cells [2] = assay: RNA-seq and GSEA of drug-treated GIST-T1 cells; assay type: cell-based, human
Protocol: (§1) RNA-seq. Total RNA was isolated using a RNeasy Plus Kit (Qiagen Cat #74136), and concentration measured by Nanodrop (Thermo Fisher Scientific) and quality by TapeStation 4200 (Agilent). Library preparation was performed using the NEBNext Ultra II DNA Library Prep Kit (New England Biolabs Cat #E7645S). Paired-end 150 bp sequencing was performed on a NovaSeq 6000 (Illumina). RNA-seq data were aligned to hg19 using STAR (Dobin et al., Bioinformatics 29:15-21 (2012)) with expression quantification using Cufflinks (Trapnell et al., Nat. Biotechnol. 28:511-5 (2010)) to generate gene expression values in fragments per kilobase of transcript per million mapped reads (FPKM) units. Gene set enrichment analysis (GSEA, RRID: SCR_003199) (Subramanian et al., Proc. Natl. Acad. Sci. USA 102:15545-50 (2005)) was performed using Hallmark gene lists in the Molecular Signatures Database.

GIST cells [3] = assay: Cell cycle analysis (propidium iodide, flow cytometry); assay type: cell-based, human; settings: 72 hours imatinib
Protocol: (§2) Cell cycle and apoptosis. […] Cells were trypsinized, washed in PBS and fixed in 70% ethanol. Propidium iodide at 25 μg/mL (Life Technologies Cat #P1304MP) and RNAse A at 0.2 mg/mL (Thermo Fischer Scientific Cat #EN0531) were used to stain nuclear DNA. Analysis was performed on a Guava easyCyte Flow Cytometer (Luminex Corporation), and single cells were assessed for nuclear content using Guava InCyte software. Apoptosis and cell death were measured following 72 h of drug treatment using Guava Nexin Reagent (Luminex Corporation Cat #4500-0450) per manufacturer's recommendations. Non-apoptotic cells stain negative for Annexin V and 7-AAD, early apoptotic cells stain positive for Annexin V but negative for 7-AAD and late apoptotic and dead cells stain positive for both Annexin V and 7-AAD. Staining was assayed on a Guava easyCyte Flow Cytometer and data analyzed using Guava InCyte software.

GIST-T1 xenografts = assay: RNA-seq on GIST-T1 xenografts; assay type: in vivo, mice; settings: 5 and 10 days of treatment
Protocol: as §1, with “Database. Xenograft Models. […] VTP-50469 (0.1% in chow) or combination treatments.” for “Database.”

GIST cells [4] = assay: Apoptosis and cell death (Annexin V / 7-AAD, Guava Nexin); assay type: cell-based, human; settings: 72-hour treatment, imatinib 0.5 μM
Protocol: as §2, with “Apoptosis and cell death were measured following 72 h of drug treatment using Guava Nexin Reagent (Luminex Corporation Cat #4500-0450) per manufacturer's recommendations.” left out

GIST-T1 cells [5] = assay: Growth over time assay in GIST-T1; assay type: cell-based, human; settings: all doses tested; day 21 cell count
Source text: Cell Culture and Virus Production. All cell lines tested negative for mycoplasma infection on routine surveillance (MilliporeSigma Cat #MP0025-1KT). Human embryonic kidney (HEK) 293 FT (Thermo Fisher Scientific Cat #R70007, RRID: CVCL_6911) and the GIST cell lines GIST-T1 (Cosmo Bio Cat #PMC-GIST01-COS, RRID: CVCL_4976; KIT mutation in exon 11 Δ560-578), GIST430 (RRID: CVCL_7040; KIT mutation in exon 11 Δ560-576), GIST48B (RRID: CVCL_M441: KIT-independent), and GIST882 (RRID: CVCL_7044: KIT mutation in exon 13 K642E) were cultured in Dulbecco's modified Eagle's medium containing 10% FBS, 2 mM L-glutamine, […], and […]. KIT rescue cell lines, which are independent of the KIT enhancer, were generated as previously described (Hemming et al., Cancer Research 79:994-1009 (2019)). Non-commercial cell lines were obtained from the laboratory of Jonathan Fletcher between 2014 and 2016. KIT exons were sequenced to confirm the expected coding mutations and cell identity of GIST cell lines, and cells were thawed from original or derived stocks and used in the described experiments within approximately 3 months. Transfections were performed with X-tremeGene (Roche, Cat #6365809001). Lentiviral production was performed as previously described (Hemming et al., PLOS Biol. 6: e2571-15 (2008)). […]

O=C(NNS(=O)(=O)c1ccccc1F)c1cc(F)cc(-c2ccccn2)c1 [WM-1119, 2-fluoro-N′-(3-fluoro-5-(pyridin-2-yl)benzoyl)benzenesulfonohydrazide]
tumor volume relative to baseline ([1]; treatment day 1 (baseline)): 100
tumor volume relative to baseline ([1]; treatment day 5, 50 mg/kg): 175 and 211 and 114 and 133 and 87 and 152
tumor volume relative to baseline ([1]; treatment day 8, 50 mg/kg): 480 and 322 and 157 and 173 and 131 and 206
tumor volume relative to baseline ([1]; treatment day 12, 50 mg/kg): 518 and 368 and 287 and 160 and 145 and 260
tumor volume relative to baseline ([1]; treatment day 14, 50 mg/kg): 527 and 429 and 327 and 181 and 163 and 328
tumor volume relative to baseline ([1]; treatment day 19, 50 mg/kg): 876 and 501 and 511 and 180 and 268 and 277
tumor volume relative to baseline ([1]; treatment day 22, 50 mg/kg): 878 and 409 and 489 and 150 and 205 and 361
tumor volume relative to baseline ([1]; treatment day 27, 50 mg/kg): 856 and 525 and 558 and 202 and 232 and 317
tumor volume relative to baseline ([1]; treatment day 29, 50 mg/kg): 874 and 532 and 648 and 199 and 221 and 353
tumor growth compared to vehicle ([1]; end of 28-day treatment period): significant reductions in tumor growth
expression of GIST TFs (GIST-T1 cells [2]; GIST-T1, 5 days): greatest global reduction in TF expression
global gene expression change (RNA-seq) versus DMSO (GIST-T1 cells [2]; GIST-T1 treated 1 and 5 days): modestly altered expression of numerous genes

Cc1ccc(NC(=O)c2ccc(CN3CCN(C)CC3)cc2)cc1Nc1nccc(-c2cccnc2)n1 [imatinib]
cell cycle effect (GIST cells [3]): G0/G1 cell cycle arrest
KIT signaling-dependent transcripts TMEM100 and SPRY2 in xenografts (GIST-T1 xenografts): preferentially reduced
expression of genes regulated by HAND1 in xenografts (GIST-T1 xenografts): decrease in the expression of genes regulated by HAND1
apoptosis and cell death versus DMSO (GIST cells [4]): significant increase in early and late-phase apoptosis and cell death

CC(C)N(C[C@H]1O[C@@H](n2cnc3c(N)ncnc32)[C@H](O)[C@@H]1O)[C@H]1C[C@@H](CCc2nc3cc(C(C)(C)C)ccc3[nH]2)C1 [EPZ-5676]
cellular proliferation of GIST-T1 compared to DMSO control or GIST48B (GIST-T1 cells [5]): significantly reduced cellular proliferation
HAND1-regulated transcriptional programs (GSEA) (GIST-T1 cells [2]; GIST-T1, 5 days): significant disruption
correlation of transcriptional changes with those of VTP-50469 (GIST-T1 cells [2]; GIST-T1, 5 days, RNA-seq): highly correlated

From US20250041299A1, “THERAPEUTIC TARGETING OF GASTROINTESTINAL STROMAL TUMOR (GIST) BY DISRUPTING THE MENIN-MLL EPIGENETIC COMPLEX” (DANA-FARBER CANCER INSTITUTE, INC., priority 2021, published 2025)
